Measurements reported in patent US20090076140A1, “PHARMACEUTICAL COMPOSITIONS CONTAINING SULPHONIC ACID DERIVATIVES” (ITALFARMACO, S. A., priority 2003, published 2009).
“Also recorded” adds a separate entry of the source.

Columns and labels:
[1] = target: aFGF (Homo sapiens, UniProt P05230); test: aFGF-induced mitogenesis inhibition test on fibroblasts in culture; assay type: cell-based; parameters: the aFGF of 139 amino acid residues; settings: for aFGF-induced mitogenic activity inhibition (in words): Balb/c 3T3 fibroblasts, 60 hours, MIHS 20 μg/mL, aFGF 0.32 ng/mL; for aFGF-induced mitogenic inhibitory activity compared between compounds (stereochemical guidelines): C-9 and C-17 vs. C-14 and C-18, C-10, C-11, C-13 vs. C-9, 2-NMS vs 1-NMS series
[2] = tested on: quiescent fibroblasts (Balb/c 3T3); test: toxicity analysis for quiescent fibroblasts (culture in the absence of aFGF); assay type: cell-based; settings: for toxicity for quiescent fibroblasts: within the concentration range tested / in which aFGF mitogenic activity is inhibited
[3] = listed as sodium 4-hydroxy-6-amino-2-naphthalenesulfonate
[4] = listed as sodium 5-acetylamino-2-naphthalenesulfonate

aFGF, sequence (P05230 16-155 limits assumed): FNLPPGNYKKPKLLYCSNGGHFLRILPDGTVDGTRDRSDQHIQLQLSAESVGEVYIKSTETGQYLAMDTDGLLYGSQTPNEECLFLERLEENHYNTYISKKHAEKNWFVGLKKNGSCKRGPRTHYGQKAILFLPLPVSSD

Row | SMILES | aFGF-induced mitogenic activity inhibition (in words) [1] | toxicity for quiescent fibroblasts [2] | other results
1 | Nc1ccc(S(=O)(=O)[O-])cc1.[Na+] [Compound C-20, sodium 4-aminobenzenesulfonate] | little aFGF-induced mitogenesis inhibitory activity | innocuous | 
2 | Nc1cccc2ccc(S(=O)(=O)[O-])cc12.[Na+] [Compound C-14, sodium 8-amino-2-naphthalenesulfonate] | aFGF-induced mitogenic activity inhibitors | certain toxic effect | 
3 | Nc1c(O)cc(S(=O)(=O)[O-])c2ccccc12.[Na+] [Compound C-7, sodium 4-amino-3-hydroxy-1-naphthalenesulfonate] | aFGF-induced mitogenic activity inhibitors; also recorded: best aFGF-induced mitogenic activity inhibitory activity | certain toxic effect | IC50 rank among the tested compounds ([1]; aFGF-induced mitogenesis): lowest IC50; proliferation of quiescent fibroblasts cultured in the absence of aFGF ([2]; at concentrations exceeding 0.2 mM): significantly increases
4 | CC(=O)Nc1cccc2ccc(S(=O)(=O)[O-])cc12.[Na+] [Compound C-15, sodium 8-acetylamino-2-naphthalenesulfonate] | aFGF-induced mitogenic activity inhibitors | innocuous | 
5 | O=C(Nc1cccc2ccc(S(=O)(=O)[O-])cc12)c1ccccc1.[Na+] [Compound C-16, sodium 8-benzoylamino-2-naphthalenesulfonate] | aFGF-induced mitogenic activity inhibitors | innocuous | 
6 | NCc1ccc(S(=O)(=O)[O-])cc1.[Na+] [Compound C-21, sodium 4-(aminomethyl)benzenesulfonate] |  |  | mitogenesis inductor / tumorigenic effect on quiescent fibroblasts in the absence of aFGF [2]: certain tumorigenic effect
7 | O=S(=O)([O-])c1ccc2ncccc2c1.[Na+] [Compound C-23, sodium 6-quinolinesulfonate] | potent aFGF-induced mitogenic activity inhibitor | toxic effect | 
8 | O=C(CCCCC(=O)Nc1cccc2cc(S(=O)(=O)O)ccc12)Nc1cccc2cc(S(=O)(=O)[O-])ccc12.[Na+] [Compound C-13] | effective aFGF-induced mitogenesis activity inhibitors |  | aFGF-induced mitogenic inhibitory activity compared between compounds (stereochemical guidelines) [1]: significant reduction; mitogenesis inductor / tumorigenic effect on quiescent fibroblasts in the absence of aFGF [2]: high mitogenesis inductor activity
9 | O=C(Nc1cccc2cc(S(=O)(=O)[O-])ccc12)c1ccccc1.[Na+] [Compound C-11, sodium 5-benzoylamino-2-naphthalenesulfonate] | aFGF-induced mitogenic activity inhibitors |  | aFGF-induced mitogenic inhibitory activity compared between compounds (stereochemical guidelines) [1]: significant reduction
10 | Nc1ccc(S(=O)(=O)[O-])c2ccccc12.[Na+] [Compound C-3, sodium 4-amino-1-naphthalenesulfonate] | low aFGF-induced mitogenesis inhibitory activity | not toxic | 
11 | O=S(=O)([O-])c1cccc2cccnc12.[Na+] [Compound C-24, sodium 8-quinolinesulfonate] | little aFGF-induced mitogenesis inhibitory activity | innocuous | 
12 | CN(C)c1cccc2c(S(=O)(=O)[O-])cccc12.[Na+] [Compound C-6, sodium 5-dimethylamino-1-naphthalenesulfonate] | aFGF-induced mitogenic activity inhibitors | certain toxic effect | 
13 | CN(C)Cc1cc2cc(S(=O)(=O)O)ccc2[nH]1 [Compound C-25, 2-[(dimethylamino)methyl]-1H-indole-5-sulfonic acid] |  |  | mitogenesis inductor / tumorigenic effect on quiescent fibroblasts in the absence of aFGF [2]: certain tumorigenic effect
14 | Nc1ccc2cc(S(=O)(=O)[O-])cc(O)c2c1.[Na+] [Compound C-17, sodium 6-amino-4-hydroxy-2-naphthalenesulfonate] | slightly less than that of C-9 | innocuous | aFGF-induced mitogenic activity inhibition (in words) [1, 3]: potent aFGF-induced mitogenic activity inhibitors; aFGF-induced mitogenic inhibitory activity compared between compounds (stereochemical guidelines) [1]: better aFGF-induced mitogenic activity inhibitors; toxicity for quiescent fibroblasts [2, 3]: not toxic
15 | O=S(=O)(O)c1ccc2ccccc2c1 [Compound C-8, 2-naphthalenesulfonic acid] | inhibits aFGF-induced mitogenic activity at lower concentrations than compound C-1 | toxic | aFGF-induced mitogenic activity inhibition (in words) ([1]; listed as 2-NMS): inhibits aFGF-induced mitogenic activity
16 | CC(=O)Nc1ccc2c(O)cc(S(=O)(=O)[O-])cc2c1.[Na+] [Compound C-19, sodium 7-acetylamino-4-hydroxy-2-naphthalenesulfonate] |  |  | mitogenesis inductor / tumorigenic effect on quiescent fibroblasts in the absence of aFGF [2]: certain tumorigenic effect
17 | Cc1ccc2ccccc2c1S(=O)(=O)[O-].[Na+] [Compound C-2, sodium 2-methyl-1-naphthalenesulfonate] | aFGF-induced mitogenic activity inhibitors | certain toxic effect | 
18 | O=C(O)c1ccccc1C(=O)Nc1cccc2cc(S(=O)(=O)O)ccc12.[Na] [Compound C-12, sodium 2-{[(6-sulfo-1-naphthyl)amino]carbonyl}benzoic acid] | effective aFGF-induced mitogenesis activity inhibitors |  | mitogenesis inductor / tumorigenic effect on quiescent fibroblasts in the absence of aFGF [2]: high mitogenesis inductor activity
19 | CC(=O)Nc1cccc2cc(S(=O)(=O)[O-])ccc12.[Na+] [Compound C-10, sodium 5-acetylamino-2-naphthalenesulfonate] | slightly less than that of C-9 | innocuous | aFGF-induced mitogenic activity inhibition (in words) [1, 4]: potent aFGF-induced mitogenic activity inhibitors; aFGF-induced mitogenic inhibitory activity compared between compounds (stereochemical guidelines) [1]: does not substantially alter the inhibitory activity; toxicity for quiescent fibroblasts [2, 4]: not toxic
20 | CC(=O)Nc1ccc(S(=O)(=O)[O-])c2ccccc12.[Na+] [Compound C-4, sodium 4-acetylamino-1-naphthalenesulfonate] | aFGF-induced mitogenic activity inhibitors | certain toxic effect | 
21 | Nc1ccc2c(O)cc(S(=O)(=O)[O-])cc2c1.[Na+] [Compound C-18, sodium 7-amino-4-hydroxy-2-naphthalenesulfonate] | aFGF-induced mitogenic activity inhibitors |  | 
